From patent publication US9834571B2, “Compounds for inhibiting cell proliferation in EGFR-driven cancers” (ARIAD Pharmaceuticals, Inc., priority 2012, dated 2017) come the findings set out here.

The target of one test is EGFR L858R (Homo sapiens, UniProt P00533, L858R). As to the kind of experiment: Kinase inhibitory activity against EGFR bearing the L858R mutation. The class given is biochemical. To be noted: 10 μM ATP, read-out: IC50 for kinase inhibition, EGFR L858R. Here is the method:
(§1) Kinase inhibitory activity of the compounds was measured against human EGFR (native sequence) and against EGFR bearing the L858R mution and the L858R/T790M double mutation (EGFR, L858R, and L858R/T790M, respectively in Table 1). Additional assays can be conducted with EGFR deletion mutants such as delE746-A750 with or without the additional T790M mutation. Assay conditions included 10 pt curves with 3 μM top concentration (singlicates) and 10 μM ATP.

Test [1] concerns BaF3 cells expressing wildtype EGFR. As to the kind of experiment: Antiproliferative activity (MTT) against control BaF3 cells expressing wildtype EGFR. It counts as cell-based. To be noted: Mus musculus. The procedure: (§2) We also assessed the antiproliferative activity of compounds of Formula (I) against BaF3 cells expressing the target EGFR mutations or control (i.e., cell lines expressing wildtype EGFR). Assays were conducted using MTT.

The target in test [2] is human EGFR (native sequence) (Homo sapiens, UniProt P00533). As to the kind of experiment: Kinase inhibitory activity against human EGFR (native sequence). It counts as biochemical. To be noted: 10 μM ATP, read-out: IC50 for kinase inhibition, EGFR. The procedure: as §1
Test [3] addresses T1, BaF3 cells expressing the target EGFR mutations (Homo sapiens, UniProt P00533, T790M, cells depend on it, form not given).
T1 construct: IC50, BAF3 EGFR DEL T790M PURO POOL; other: BAF3 EGFR DEL T790M PURO POOL cells, MTT; other: BAF3 EGFR DEL T790M PURO POOL cells; MTT
The test is described as follows: Antiproliferative activity (MTT) against BaF3 cells expressing the target EGFR mutations. The class given is cell-based. To be noted: BAF3 EGFR DEL T790M PURO POOL cells, read-out: IC50, BAF3 EGFR DEL T790M PURO POOL. The procedure: as §2

The target in test [4] is T2, BaF3 cells expressing the target EGFR mutations (Homo sapiens, UniProt P00533, T790M/L858R, cells depend on it).
T2 construct: IC50, BAF3 EGFR L858R-T790M PURO POOL; other: BAF3 EGFR L858R-T790M PURO POOL cells, MTT; IC50, BAF3 EGFR L858R-T790M PURO POOL; other: BAF3 EGFR L858R-T790M PURO POOL cells; MTT
The description is as above. It counts as cell-based. To be noted: BAF3 EGFR L858R-T790M PURO POOL cells, read-out: IC50, BAF3 EGFR L858R-T790M PURO POOL. Here is the method:
as §2

A further test addresses EGFR L858R/T790M (Homo sapiens, UniProt P00533, L858R/T790M). The test is described as follows: Kinase inhibitory activity against EGFR bearing the L858R/T790M double mutation. The class given is biochemical. Particulars: 10 μM ATP, read-out: IC50 for kinase inhibition, EGFR L858R T790M. The procedure: as §1
The mark [5] stands for this setting: EGFR L858R/T790M double mutation.
Setting [6] is: 10 pt curves, 3 μM top concentration.

Like-named read-outs stand apart in the source and are kept apart here.

T2 sequence (P00533 whole entry T790M/L858R): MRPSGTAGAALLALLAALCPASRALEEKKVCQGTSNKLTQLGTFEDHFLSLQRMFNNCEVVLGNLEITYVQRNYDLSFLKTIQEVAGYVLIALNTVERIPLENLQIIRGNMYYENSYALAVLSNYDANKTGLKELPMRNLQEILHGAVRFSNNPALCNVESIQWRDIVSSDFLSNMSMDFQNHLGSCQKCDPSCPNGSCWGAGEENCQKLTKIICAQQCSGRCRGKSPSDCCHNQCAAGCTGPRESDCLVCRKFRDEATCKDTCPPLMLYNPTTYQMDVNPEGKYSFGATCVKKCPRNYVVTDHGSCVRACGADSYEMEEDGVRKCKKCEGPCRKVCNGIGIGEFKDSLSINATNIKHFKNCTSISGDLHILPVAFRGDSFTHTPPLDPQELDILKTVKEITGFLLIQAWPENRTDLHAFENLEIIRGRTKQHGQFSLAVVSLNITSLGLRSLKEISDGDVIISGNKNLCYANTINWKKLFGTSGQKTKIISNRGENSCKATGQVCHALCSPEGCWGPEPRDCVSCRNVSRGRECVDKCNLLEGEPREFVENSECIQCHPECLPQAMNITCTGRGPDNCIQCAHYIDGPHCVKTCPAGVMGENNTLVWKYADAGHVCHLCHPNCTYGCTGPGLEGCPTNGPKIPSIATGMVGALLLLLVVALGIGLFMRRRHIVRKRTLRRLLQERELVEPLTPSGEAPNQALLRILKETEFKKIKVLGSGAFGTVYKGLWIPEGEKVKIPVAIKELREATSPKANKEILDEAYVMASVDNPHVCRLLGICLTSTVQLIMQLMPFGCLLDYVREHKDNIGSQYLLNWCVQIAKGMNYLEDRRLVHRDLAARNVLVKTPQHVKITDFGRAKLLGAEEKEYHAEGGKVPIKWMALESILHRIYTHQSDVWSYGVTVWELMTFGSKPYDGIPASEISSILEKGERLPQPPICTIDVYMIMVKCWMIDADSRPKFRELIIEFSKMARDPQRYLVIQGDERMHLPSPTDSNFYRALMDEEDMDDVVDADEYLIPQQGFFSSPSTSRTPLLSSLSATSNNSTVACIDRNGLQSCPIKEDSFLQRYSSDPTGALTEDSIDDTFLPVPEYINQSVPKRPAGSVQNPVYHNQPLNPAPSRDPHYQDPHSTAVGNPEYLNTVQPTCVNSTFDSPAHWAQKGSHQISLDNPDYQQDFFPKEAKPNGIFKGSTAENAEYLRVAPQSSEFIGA
T1 sequence (P00533 with tags, fused parts or gaps DEL746-750/T790M, form open): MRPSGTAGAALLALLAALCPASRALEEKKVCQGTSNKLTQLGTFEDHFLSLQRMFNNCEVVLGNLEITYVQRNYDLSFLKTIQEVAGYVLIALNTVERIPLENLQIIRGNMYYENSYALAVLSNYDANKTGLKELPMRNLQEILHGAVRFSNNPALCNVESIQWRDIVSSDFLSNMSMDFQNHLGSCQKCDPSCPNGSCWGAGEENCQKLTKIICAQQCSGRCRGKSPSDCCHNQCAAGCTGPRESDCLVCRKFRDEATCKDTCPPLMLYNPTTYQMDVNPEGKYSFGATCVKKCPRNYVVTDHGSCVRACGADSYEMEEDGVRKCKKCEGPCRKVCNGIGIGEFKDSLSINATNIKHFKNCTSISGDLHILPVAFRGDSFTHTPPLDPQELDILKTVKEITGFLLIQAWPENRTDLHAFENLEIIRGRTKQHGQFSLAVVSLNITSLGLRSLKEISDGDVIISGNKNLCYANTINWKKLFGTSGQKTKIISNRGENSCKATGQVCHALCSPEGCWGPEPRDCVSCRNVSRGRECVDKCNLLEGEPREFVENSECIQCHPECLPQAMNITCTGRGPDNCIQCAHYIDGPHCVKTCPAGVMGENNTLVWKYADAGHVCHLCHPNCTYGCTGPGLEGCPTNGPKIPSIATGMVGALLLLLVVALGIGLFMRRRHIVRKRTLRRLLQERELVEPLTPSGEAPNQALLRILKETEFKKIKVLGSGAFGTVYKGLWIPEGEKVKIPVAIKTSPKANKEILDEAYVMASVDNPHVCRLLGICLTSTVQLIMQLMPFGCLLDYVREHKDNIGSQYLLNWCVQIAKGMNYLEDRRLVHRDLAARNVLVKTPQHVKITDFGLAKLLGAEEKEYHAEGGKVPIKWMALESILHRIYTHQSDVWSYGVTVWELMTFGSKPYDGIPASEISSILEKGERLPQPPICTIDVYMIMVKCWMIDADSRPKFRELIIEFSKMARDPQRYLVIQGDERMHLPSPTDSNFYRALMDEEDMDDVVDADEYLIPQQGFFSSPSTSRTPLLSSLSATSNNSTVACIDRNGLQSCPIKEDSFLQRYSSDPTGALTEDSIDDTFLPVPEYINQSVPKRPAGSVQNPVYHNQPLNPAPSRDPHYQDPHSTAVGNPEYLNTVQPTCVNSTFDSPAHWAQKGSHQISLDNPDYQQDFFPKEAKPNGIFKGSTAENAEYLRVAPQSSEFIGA
EGFR L858R/T790M, sequence (P00533 25-1210 T790M/L858R): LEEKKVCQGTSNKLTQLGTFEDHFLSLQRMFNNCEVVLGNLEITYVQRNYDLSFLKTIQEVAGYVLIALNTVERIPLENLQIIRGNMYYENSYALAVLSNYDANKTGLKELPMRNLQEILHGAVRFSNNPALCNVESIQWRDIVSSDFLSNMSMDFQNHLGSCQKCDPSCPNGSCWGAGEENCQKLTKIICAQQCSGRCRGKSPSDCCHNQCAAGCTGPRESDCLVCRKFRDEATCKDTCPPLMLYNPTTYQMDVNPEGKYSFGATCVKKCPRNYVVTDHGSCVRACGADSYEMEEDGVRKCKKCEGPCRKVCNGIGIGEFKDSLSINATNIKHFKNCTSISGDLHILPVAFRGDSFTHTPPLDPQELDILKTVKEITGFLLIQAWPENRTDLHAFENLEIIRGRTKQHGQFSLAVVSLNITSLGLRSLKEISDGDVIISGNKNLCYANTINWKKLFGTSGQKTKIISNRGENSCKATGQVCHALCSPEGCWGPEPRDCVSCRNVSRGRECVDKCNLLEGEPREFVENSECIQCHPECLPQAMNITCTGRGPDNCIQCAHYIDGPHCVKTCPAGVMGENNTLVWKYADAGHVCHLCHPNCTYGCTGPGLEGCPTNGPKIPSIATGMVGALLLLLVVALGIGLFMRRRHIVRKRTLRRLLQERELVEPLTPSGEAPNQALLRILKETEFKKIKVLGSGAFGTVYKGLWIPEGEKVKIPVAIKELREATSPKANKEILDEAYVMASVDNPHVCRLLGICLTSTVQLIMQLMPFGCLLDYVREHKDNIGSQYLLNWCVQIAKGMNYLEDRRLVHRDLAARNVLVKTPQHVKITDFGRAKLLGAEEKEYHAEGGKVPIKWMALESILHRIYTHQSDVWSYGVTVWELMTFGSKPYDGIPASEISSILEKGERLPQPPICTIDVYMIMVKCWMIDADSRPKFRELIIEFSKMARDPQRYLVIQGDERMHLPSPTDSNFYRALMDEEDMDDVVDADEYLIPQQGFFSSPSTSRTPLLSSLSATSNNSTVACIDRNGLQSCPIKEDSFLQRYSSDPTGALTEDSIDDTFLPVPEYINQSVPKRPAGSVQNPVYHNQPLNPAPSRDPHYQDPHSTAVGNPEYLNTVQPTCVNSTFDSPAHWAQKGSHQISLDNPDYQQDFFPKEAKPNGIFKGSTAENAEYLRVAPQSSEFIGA
EGFR L858R, sequence (P00533 25-1210 L858R): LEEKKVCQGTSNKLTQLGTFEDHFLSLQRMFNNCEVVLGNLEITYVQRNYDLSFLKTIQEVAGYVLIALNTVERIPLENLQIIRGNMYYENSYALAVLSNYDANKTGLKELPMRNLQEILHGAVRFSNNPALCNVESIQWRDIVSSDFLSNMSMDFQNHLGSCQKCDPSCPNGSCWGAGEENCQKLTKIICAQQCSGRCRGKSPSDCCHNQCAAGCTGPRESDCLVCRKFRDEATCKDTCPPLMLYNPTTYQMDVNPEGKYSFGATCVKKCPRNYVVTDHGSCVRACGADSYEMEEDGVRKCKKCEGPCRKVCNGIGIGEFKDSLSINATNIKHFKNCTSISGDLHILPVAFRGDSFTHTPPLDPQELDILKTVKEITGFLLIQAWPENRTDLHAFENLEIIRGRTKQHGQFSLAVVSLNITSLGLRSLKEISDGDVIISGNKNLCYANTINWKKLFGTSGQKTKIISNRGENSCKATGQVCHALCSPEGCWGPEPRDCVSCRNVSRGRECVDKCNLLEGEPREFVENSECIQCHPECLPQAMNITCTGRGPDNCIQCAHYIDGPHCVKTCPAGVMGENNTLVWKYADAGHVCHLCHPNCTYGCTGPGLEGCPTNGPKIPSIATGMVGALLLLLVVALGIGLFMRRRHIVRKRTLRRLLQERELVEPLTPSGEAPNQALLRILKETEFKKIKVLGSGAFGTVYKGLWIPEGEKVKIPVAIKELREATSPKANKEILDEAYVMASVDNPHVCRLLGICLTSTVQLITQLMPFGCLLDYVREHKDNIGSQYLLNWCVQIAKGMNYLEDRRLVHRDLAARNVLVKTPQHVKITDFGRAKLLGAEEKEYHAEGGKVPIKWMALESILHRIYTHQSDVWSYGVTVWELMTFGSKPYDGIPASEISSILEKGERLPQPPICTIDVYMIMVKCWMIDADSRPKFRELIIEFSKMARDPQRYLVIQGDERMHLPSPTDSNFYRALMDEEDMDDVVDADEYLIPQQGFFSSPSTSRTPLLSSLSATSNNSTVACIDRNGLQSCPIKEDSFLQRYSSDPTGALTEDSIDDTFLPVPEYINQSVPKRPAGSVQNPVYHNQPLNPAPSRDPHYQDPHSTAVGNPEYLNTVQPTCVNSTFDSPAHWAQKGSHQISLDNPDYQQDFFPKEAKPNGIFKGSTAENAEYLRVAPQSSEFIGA

For orientation: IC50 means the concentration that inhibits the measured activity by half. Consider `C=C(CN1CCOCC1)C(=O)Nc1ccc(OC)c(Nc2ncc(Cl)c(Nc3ccccc3P(C)(C)=O)n2)c1` [Example 48, N-(3-((5-chloro-4-((2-(dimethylphosphoryl)phenyl)amino)pyrimidin-2-yl)amino)-4-methoxyphenyl)-2-(morpholinomethyl)acrylamide], for which the IC50 on EGFR L858R (EGFR L858R) was below 50 nM; in test [1] (BAF3 PARENTAL cells (control)), at least 250 nM; in test [2] (human EGFR native sequence) it was below 50 nM; on EGFR L858R/T790M (setting [5]), below 50 nM. Besides, the GI50 in test [3] and in test [4] was below 50 nM throughout.

Consider `C=CC(=O)Nc1ccc(Cl)c(Nc2ncc(Cl)c(Nc3ccccc3P(C)(C)=O)n2)c1` [Example 136, N-(4-chloro-3-((5-chloro-4-((2-(dimethylphosphoryl)phenyl)amino)pyrimidin-2-yl)amino)phenyl)acrylamide], for which the IC50 is below 50 nM at EGFR L858R (setting [6]), at least 250 nM in test [1] (BAF3 parental cells), below 50 nM in test [2] (setting [6]) and below 50 nM at EGFR L858R/T790M (setting [6]). In addition, the GI50 in test [3] and in test [4] was below 50 nM throughout.

On to `C=CC(=O)Nc1cc(Nc2ncc(Cl)c(Nc3ccccc3P(C)(C)=O)n2)c(OC)cc1C#CC(C)(C)N(CC)CC` [Example 154, N-(5-((5-chloro-4-((2-(dimethylphosphoryl)phenyl)amino)pyrimidin-2-yl)amino)-2-(3-(diethylamino)-3-methylbut-1-yn-1-yl)-4-methoxyphenyl)acrylamide], for which the 50% inhibitory concentration (IC50) at EGFR L858R (setting [6]) was below 50 nM; in test [1] (BAF3 parental cells) it was at least 250 nM; in test [2] (setting [6]) it was below 50 nM; on EGFR L858R/T790M (setting [6]) it was below 50 nM. The GI50 in test [3] and in test [4] was below 50 nM in each case.

Regarding `C=CC(=O)Nc1ccc(OCCN(C)C)c(Nc2ncc(Cl)c(Nc3ccccc3P(C)(C)=O)n2)c1` [Example 117, N-(3-((5-chloro-4-((2-(dimethylphosphoryl)phenyl)amino)pyrimidin-2-yl)amino)-4-(2-(dimethylamino)ethoxy)phenyl)acrylamide], the half-maximal inhibitory concentration (IC50) (on EGFR L858R (setting [6]); in test [1] (BAF3 parental cells); in test [2] (setting [6]); at EGFR L858R/T790M (setting [6])) was at least 250 nM throughout. The GI50 in test [3] and in test [4] was at least 250 nM in each case.

As for `C=CC(=O)Nc1ccc(CC)c(Nc2ncc(Cl)c(Nc3ccccc3P(C)(C)=O)n2)c1` [Example 135, N-(3-((5-chloro-4-((2-(dimethylphosphoryl)phenyl)amino)pyrimidin-2-yl)amino)-4-ethylphenyl)acrylamide], the IC50 was below 50 nM at EGFR L858R (setting [6]), at least 250 nM in test [1] (BAF3 parental cells), below 50 nM in test [2] (setting [6]) and below 50 nM at EGFR L858R/T790M (setting [6]). Also, the GI50 in test [3] and in test [4] was below 50 nM throughout.

Take `C=CC(=O)Nc1cc(Nc2ncc(Cl)c(Nc3ccccc3P(C)(C)=O)n2)c(OC)cc1C#CCN1CCN(C)CC1` [Example 159, N-(5-((5-chloro-4-((2-(dimethylphosphoryl)phenyl)amino)pyrimidin-2-yl)amino)-4-methoxy-2-(3-(4-methylpiperazin-1-yl)prop-1-yn-1-yl)phenyl)acrylamide]: the IC50 was below 50 nM at EGFR L858R (setting [6]), at least 250 nM in test [1] (BAF3 parental cells), below 50 nM in test [2] (setting [6]) and below 50 nM at EGFR L858R/T790M (setting [6]). In addition, the figures for the GI50 in test [3] and in test [4] were below 50 nM and 101 to 250 nM, respectively.

As for `CC#CC(=O)Nc1cc(Nc2ncc(Cl)c(Nc3ccccc3P(C)(C)=O)n2)c(OC)cc1OC1COC1` [Example 103, N-(5-((5-chloro-4-((2-(dimethylphosphoryl)phenyl)amino)pyrimidin-2-yl)amino)-4-methoxy-2-(oxetan-3-yloxy)phenyl)but-2-ynamide], the IC50 is below 50 nM at EGFR L858R (setting [6]), at least 250 nM in test [1] (BAF3 parental cells), at least 250 nM in test [2] (setting [6]) and 50 to 100 nM at EGFR L858R/T790M (setting [6]). Moreover, the GI50 was below 50 nM in test [3] and 50 to 100 nM in test [4].

Regarding `C=CC(=O)Nc1cc(Nc2ncc(Cl)c(Nc3ccccc3P(C)(C)=O)n2)c(OC)cc1C#CCN1CCCCC1` [Example 167, N-(5-((5-chloro-4-((2-(dimethylphosphoryl)phenyl)amino)pyrimidin-2-yl)amino)-4-methoxy-2-(3-(piperidin-1-yl)prop-1-yn-1-yl)phenyl)acrylamide], the IC50 (at EGFR L858R (setting [6]); in test [1] (BAF3 parental cells); in test [2] (setting [6]); at EGFR L858R/T790M (setting [6])) was below 50 nM each time. The GI50 in test [3] and in test [4] was below 50 nM throughout.

Consider `C=CC(=O)Nc1cc(Nc2ncc(Cl)c(Nc3ccccc3P(C)(C)=O)n2)c(OC)cc1CCN1CCN(C)CC1` [Example 74, N-(5-((5-chloro-4-((2-(dimethylphosphoryl)phenyl)amino)pyrimidin-2-yl)amino)-4-methoxy-2-(2-(4-methylpiperazin-1-yl)ethyl)phenyl)acrylamide], for which the IC50 at EGFR L858R (EGFR L858R) was below 50 nM; in test [1] (BAF3 PARENTAL cells (control)), at least 250 nM; in test [2] (human EGFR native sequence), below 50 nM; at EGFR L858R/T790M (setting [5]), below 50 nM. Further, the GI50 is 101 to 250 nM in test [3] and at least 250 nM in test [4].

Consider `COc1cc(N2CCOCC2)c(NC(=O)C#CCN(C)C)cc1Nc1ncc(Cl)c(Nc2ccccc2P(C)(C)=O)n1` [Example 104, N-(5-((5-chloro-4-((2-(dimethylphosphoryl)phenyl)amino)pyrimidin-2-yl)amino)-4-methoxy-2-morpholinophenyl)-4-(dimethylamino)but-2-ynamide], for which the IC50 at EGFR L858R (setting [6]) is below 50 nM; in test [1] (BAF3 parental cells), at least 250 nM; in test [2] (setting [6]) it was below 50 nM; on EGFR L858R/T790M (setting [6]), below 50 nM. Also, the GI50 in test [3] and in test [4] was below 50 nM throughout.

`C=CC(=O)Nc1cc(Nc2ncc(Cl)c(Nc3ccccc3P(C)(C)=O)n2)c(Cl)cc1OC(COC)CN(C)C` (stereo not drawn) [Example 145, N-(4-chloro-5-((5-chloro-4-((2-(dimethylphosphoryl)phenyl)amino)pyrimidin-2-yl)amino)-2-((1-(dimethylamino)-3-methoxypropan-2-yl)oxy)phenyl)acrylamide]: the IC50 at EGFR L858R (setting [6]) was below 50 nM; in test [1] (BAF3 parental cells), at least 250 nM; in test [2] (setting [6]) it was below 50 nM; at EGFR L858R/T790M (setting [6]), below 50 nM. The GI50 in test [3] and in test [4] was below 50 nM throughout.

For `C=CC(=O)Nc1cc(Nc2ncc(Cl)c(Nc3ccccc3P(C)(C)=O)n2)c(OC)cc1OC1CCCN(C)C1` (stereo not drawn) [Example 12, N-(5-((5-chloro-4-((2-(dimethylphosphoryl)phenyl)amino)pyrimidin-2-yl)amino)-4-methoxy-2-((1-methylpiperidin-3-yl)oxy)phenyl)acrylamide], the half-inhibitory concentration (IC50) on EGFR L858R (EGFR L858R) is below 50 nM; in test [1] (BAF3 PARENTAL cells (control)) it was at least 250 nM; in test [2] (human EGFR native sequence), below 50 nM; on EGFR L858R/T790M (setting [5]), below 50 nM. In addition, the GI50 in test [3] and in test [4] was below 50 nM throughout.

For `C=CC(=O)Nc1cc(Nc2ncc(Cl)c(Nc3ccccc3P(C)(C)=O)n2)c(OC)cc1N1CCC(N2CCCC2)CC1` [Example 72, N-(5-((5-chloro-4-((2-(dimethylphosphoryl)phenyl)amino)pyrimidin-2-yl)amino)-4-methoxy-2-(4-(pyrrolidin-1-yl)piperidin-1-yl)phenyl)acrylamide], the half-inhibitory concentration (IC50) is below 50 nM on EGFR L858R (EGFR L858R), at least 250 nM in test [1] (BAF3 PARENTAL cells (control)), 50 to 100 nM in test [2] (human EGFR native sequence) and below 50 nM at EGFR L858R/T790M (setting [5]). Besides, the GI50 in test [3] was below 50 nM; in test [4] it was 101 to 250 nM.
